We go through 4 compounds from PMC12483151, “Late-Stage Functionalization of Lysine to Organelle-Targeting Fluorescent Probes” (JACS Au, 2025).

Each structure is given as a SMILES string. Where “and” joins values, the source holds several entries; their conditions need not be identical. Equal values may be shown once. Where a SMILES comes first, the peptide text is derived from it.

The test system of data set [1] is T-47D cells.
The subject of a further data set is E. coli. The note with it: MHB, 37 °C, 18 h, OD600; for Discrete-well MIC (CLSI definition, two-fold dilutions): E. coli ~5 x 10^5 CFU/mL, lowest concentration with ≤ 10 % growth; for Extrapolated (interpolated) MIC (4-parameter logistic fit): E. coli, concentration at 10 % growth by curve fit. As to the method: Plates were sealed and incubated
(1 picture or pasted object on this page, not shown here)

Data set [2] has as its system T-47D cells. As to the kind of experiment: Mitochondrial colocalization imaging with MitoTracker Red. The data set is classed as cell-based, Human. The following applies: T-47D live cells.
Method: Cells were plated in an IBIDI 8-well glass bottom chamber at a density of 25,000 cells per well in media and allowed to adhere overnight at 37 °C, 5% CO2. Fresh 10 mM stock solutions of probes were prepared in DMSO on the day of experimentation. Working solutions of all compounds in media were prepared on the day of experimentation. Culture media was removed from the wells, and 200 mL of 100 nM probe was added to the desired wells and placed in an incubator for 30 min. Media was removed from the wells, and 200 mL of 100 nM MitroTracker-Red FM (ThermoFisher, M22425) was added to the desired wells and placed in an incubator for 15 min. Staining media was removed, and cells were washed with 200 μL of PBS for 5 min (repeated 3 times). PBS was removed and replaced with 200 mL of fresh medium, followed by immediate imaging. Five images were captured for each well. Colocalization analysis for Pearson’s R (R) and Mander’s Colocalization Coefficient (MCC) was conducted using the EzColocalization Plugin for ImageJ.
Colocalization studies – EzColocalization Details. Co-localization studies were done using
EzColocalization. EzColocalization is an ImageJ Application Program Interface (APIs)-an open-source
plugin, where individual cells can be highlighted and colocalization studies can be run across three
channels. The metric matrix for TOS (linear scaling) in the heatmap quantifies colocalization. FT […]

Regarding `COc1ccc(C(=O)c2c(-c3ccc(OC)cc3)cc(-c3ccc(OC)cc3)[n+](CCCC[C@H](NC(=O)[C@H](CC(=O)O)NC(=O)[C@H](CC(C)C)NC(C)=O)C(=O)N[C@H](C(=O)N[C@@H](CC(N)=O)C(=O)N[C@@H](CCCNC(=N)N)C(N)=O)C(C)C)c2-c2ccc(OC)cc2)cc1` [5b], the “Percentage cell death (average)” value in the data set on T-47D cells [1] (100 nM, 1 h, Annexin V/PI, n = 3 biological replicates, one average given for 4f and 5b) amounted to 4.6%.
In the case of `COc1ccc(C(=O)c2c(-c3ccc(OC)cc3)cc(-c3ccc(OC)cc3)[n+](CCCC[C@H](NC(C)=O)C(=O)N[C@@H](CCCNC(=N)N)C(=O)N[C@@H](Cc3c[nH]c4ccccc34)C(=O)N[C@@H](CCCNC(=N)N)C(=O)N[C@@H](Cc3c[nH]c4ccccc34)C(N)=O)c2-c2ccc(OC)cc2)cc1` [5g], in the data set with E. coli, the “Discrete-well MIC (CLSI definition, two-fold dilutions)” value turned out to be 125 µM; the “Extrapolated (interpolated) MIC (4-parameter logistic fit)” value is 0.0715 mM and 0.072 ± 0.01 mM.
Take `COc1cccc2c1C(=O)c1c(O)c3c(c(O)c1C2=O)C[C@@](O)(C(=O)CO)C[C@@H]3O[C@H]1C[C@H](N)[C@H](O)[C@H](C)O1` [Dox, doxorubicin]: the “survival less than DOX-Py” value in the data set with T-47D cells [1] (100 nM, 1 h, Annexin V/PI, n = 3 biological replicates) was determined as 20%. Moreover, the survival rate with T-47D cells [1] (Annexin V/PI flow cytometry (100 nM, 1 h per Figure S25)) is 40%. Moreover, the “Pearson's coefficient (colocalization with MitoTracker Red)” value in the data set on T-47D cells [2] (100 nM probe, 100 nM MitoTracker Red, EzColocalization/ImageJ, 1 = perfect colocalization, -1 = none) amounted to 0.397. Also, the subcellular localization result in the data set on T-47D cells [2] (100 nM, co-stained with MitoTracker Red) is listed as “primarily colocalized with the nucleus”.
With `CC(=O)N[C@@H](CCCCN)C(=O)N[C@@H](CCCNC(=N)N)C(=O)N[C@@H](Cc1c[nH]c2ccccc12)C(=O)N[C@@H](CCCNC(=N)N)C(=O)N[C@@H](Cc1c[nH]c2ccccc12)C(N)=O` [2g] (Ac-KRWRW-NH2), in the data set with E. coli, the “Discrete-well MIC (CLSI definition, two-fold dilutions)” value came out at 125 µM; the “Extrapolated (interpolated) MIC (4-parameter logistic fit)” value was 0.0693 mM and 0.069 ± 0.06 mM.
